System: Actinobacillus actinomycetemcomitans
Test: Standard colony forming units (CFU) assay of LL-37 on A. actinomycetemcomitans
Format: cell-based
Description: In this study we used an isolate of Actinobacillus actinomycetemcomitans from the oral cavitas of patient (A), kindly provided by Dr A. Johansson (Umeå). Bacteria were routinely grown on tryptic soy agar (Difco) supplemented with 0.5% yeast extract (TSBY) at microaerophilic conditions. The effect of LL-37 on A. actinomycetemcomitans was tested in a standard colony forming units (CFU)-assay (Tanaka et al., Oral Microbiol Immunol. 2000;15(4):226-31) by incubating 10^5 bacteria for 90 min with 20 μg/ml of synthetic LL-37 in 10 mM phosphate buffer pH 7.2 with 1% TSBY.

LL-37: Human cathelicidin-type antibacterial peptide encoded by the CAMP gene, SEQ ID NO: 3; released from the proform cathelin-LL-37 (LLGDFFRKSKEKIGKEFKRIVQRIKDFLRNLVPRTES; homo sapiens)
reduction in colony counts (20 μg/ml LL-37 for 90 min, 10^5 bacteria, isolate from patient (A), 10 mM phosphate buffer pH 7.2 with 1% TSBY): 3-4 log | effect on growth of the bacteria in vitro (A. actinomycetemcomitans isolated from patient (A)): could stop the growth

Reference: US7591997B2, “Method for determining the susceptibility of a subject to infection” (Mabtech AB, priority 2002, dated 2009)
